According to US6780853B1, “Neuroactive steroids of the androstane and pregnane series” (priority 1995, dated 2004):
Where a name gives a salt, the structure may show the parent alone.

Biological target: GABA receptor complex (GRC)
Assay: [35S]TBPS binding in rat cerebral cortex P2 homogenate
Details: for IC50: concentration to inhibit 50% of control [35S]TBPS binding, 2 nM [35S]TBPS; for IMAX (maximum inhibition): maximum inhibition of [35S]TBPS binding
Description: To those skilled in the art, it is known that the modulation of [^35S]t-butylbicyclophosphorothionate ([^35S]TBPS) binding is a measure of the potency and efficacy of drugs acting at the GRC, which drugs may be of potential therapeutic value in the treatment of stress, anxiety, and seizure disorders (Squires, R. F., et al., Mol, Pharmacol., 23:326 (1983); Lawrence, L. J., et al., Biochem. Biophys. Res. Comm., 123:1130-1137 (1984); Wood, et al., Pharmacol, Exp. Ther., 231:572-576 (1984)). Several experiments were performed previously to determine the nature of the modulation of [^35S]TBPS as affected by neuroactive steroids. […] Furthermore, these compounds have high potency and efficacy at the GRC, with stringent structural requirements for such activity.
The procedures for performing this assay are fully discussed in: (1) Gee, K. W. et al., European Journal of Pharmacology, 136:419-423 (1987)); and (2) Gee, et al., Molecular Pharmacology 30:218 (1986). These procedures were performed as follows:
Brains from male Sprague-Dawley rats were removed immediately following sacrifice and the cerebral cortices dissected over ice. A P2 homogenate was prepared as previously described (Gee, et al., Molecular Pharmacology 30:218 (1986)). Briefly, the cortices were gently homogenized in 032 M sucrose followed by centrifugation at 1000×g for 10 minutes. The supernatant was collected and centrifuged at 9000×g for 20 minutes. The resultant P2 pellet was suspended as a 10% (original wet weight/volume) suspension in 50 mM Na/K phosphate buffer (pH 7.4) 200 mM NaCl to form the homogenate.
One hundred microliter […] aliquots of the P2 homogenate (0.5 milligrams (mg) protein) were incubated with 2 nanomolar (nM) [^35S]TBPS (70-110 curies/millimole; New England Nuclear, Boston, Mass.) in the presence or absence of the naturally occurring steroids or their synthetic derivatives to be tested. The tested compounds were dissolved in dimethylsulfoxide (Baker Chem. Co., Phillipsburg, N.J.) and added to the incubation mixture in 5 μL aliquots. The incubation mixture was brought to a final volume of 1 mL with buffer. Non-specific binding was defined as binding in the presence of […]. The effect and specificity of GABA (Sigma Chem. Co., St. Louis, Mo.) was evaluated by performing all assays in the presence of GABA plus (+)bicuculline (Sigma Chem. Co.). Incubations maintained at 25° C. for 90 minutes (steady state conditions) were terminated by rapid filtration through glass fiber filters (No. 32, Schleicher and Schuell, Keene, N.H.). Filter-bound radioactivity was quantitated by liquid scintillation spectrophotometry. Kinetic data and compound/[^35S]TBPS dose-response curves were analyzed by nonlinear regression using a computerized iterative procedure to obtain rate constants and IC50 (concentration of compound at which half-maximal inhibition of basal [^35S]TBPS binding occurs) values.
Various compounds were screened to determine their potential as modulators of [^35S]TBPS binding in vitro. These assays were performed in accordance with the above discussed procedures. Based on these assays, we have established the structure-activity requirements for their specific interaction at the GRC and their rank order potency and efficacy. Experimental data obtained in this assay for a number of 3α-hydroxypregnan-20-one derivatives is discussed in Gee, K. W. et al., European Journal of Pharmacology, 136:419-423 (1987) and in U.S. Pat. No. 5,232,917. Table 1 provides IC50 and maximum inhibition (IMAX) measurements for numerous compounds, including examples of compounds disclosed and claimed herein. IC50 is defined as concentration of compounds to inhibit 50% of control [^35S]TBPS binding. It is an indication of a compound's in vitro potency. Maximum inhibition is an indication of a compound's in vitro efficacy.

CO[C@H]1CC[C@H]2[C@@H]3CC[C@H]4C[C@](C)(O)CC[C@]4(C)[C@H]3CC[C@]12C [3α-Hydroxy-17β-methoxy-3βmethyl-5α-androstane]
IC50: 0.097 µM | IMAX (maximum inhibition): 97%

C[C@]12CC[C@@H]3c4ccc(O)cc4CC[C@H]3[C@@H]1CC[C@@H]2O [17β-Estradiol, reference compound]
IMAX (maximum inhibition): 0%

COCC1(O)CCC2(C)C(CCC3C2CCC2(C)C(C(=O)CS(=O)(=O)c4ccc(N5CCCC5)cc4)CCC32)C1 (stereo not drawn) [3α-Hydroxy-3β-methoxymnethyl-21-(4′-pyrrolidinophenyl)sulfonyl-5α-pregnan-20-one]
IC50: 0.208 µM | IMAX (maximum inhibition): 101%

C#C[C@@]1(O)CC[C@@]2(C)[C@H](CC[C@@H]3[C@@H]2CC[C@]2(C)[C@@H](C(=O)CSCCO)CC[C@@H]32)C1 [3β-Ethynyl-3α-hydroxy-21-hydroxyethylthio-5β-pregnan-20-one]
IC50: 0.18 µM | IMAX (maximum inhibition): 103%

CC(=O)c1ccc(C#C[C@@]2(O)CC[C@@]3(C)[C@H](CC[C@@H]4[C@@H]3CC[C@]3(C)[C@@H](C(=O)CSc5ccncc5)CC[C@@H]43)C2)cc1 [3β-(4′-acetylphenyl)ethynyl-3α-hydroxy-21-(pyrid-4ylthio)-5β-pregnan-20-one]
IC50: 0.029 µM | IMAX (maximum inhibition): 94%

CC12CCC(O)CC1CCC1C2CCC2(C)C(C(=O)CS(=O)(=O)O)CCC12 (stereo not drawn) [3α-Hydroxy-21-sulfonic acid-5β-pregnan-20-one 21-sodium salt]
IC50: 0.732 µM | IMAX (maximum inhibition): 62%

C#CC1(O)CCC2(C)C(CCC3C2CCC2(C)C(C(=O)CSCCCS(=O)(=O)O)CCC32)C1 (stereo not drawn) [3β-ethynyl-3α-hydroxy-21-thiopropanesulfonate-5β-pregnan-20-one sodium salt]
IC50: 0.343 µM | IMAX (maximum inhibition): 97%

C#CC1(O)CCC2(C)C(CCC3C2CCC2(C)C(C(=O)CSCCOS(=O)(=O)O)CCC32)C1 (stereo not drawn) [3β-ethynyl-3α-hydroxy-21-thioethanesulfate-5β-pregnan-20-one trimethyl ammonium salt]
IC50: 0.322 µM | IMAX (maximum inhibition): 101%

C[C@]12CC[C@@H](O)C[C@H]1CC[C@@H]1[C@@H]2CC[C@]2(C)[C@@H](C(=O)COc3ccncc3)CC[C@@H]12 [3α-Hydroxy-21-(pyrid-4-yloxy)-5β-pregnan-20-one]
IC50: 0.045 µM | IMAX (maximum inhibition): 76%

C[n+]1ccc(SCC(=O)C2CCC3C4CCC5CC(O)CCC5(C)C4CCC23C)cc1 (stereo not drawn) [3α-Hydroxy-21-(pyrid-4-ylthio)-5α-pregnan-20 -one N-methyl i] [3α-Hydroxy-21-(pyrid-4-ylthio)-5α-pregnan-20-one N-methyl iodide]
IC50: 0.188 µM | IMAX (maximum inhibition): 100%

CC(=O)[C@H]1CC[C@H]2[C@@H]3CC[C@H]4C[C@@H](O)CC[C@]4(C)[C@H]3CC[C@]12C [3β-Hydroxy-5α-pregnan-20-one, reference compound]
IC50: > 1000 µM | IMAX (maximum inhibition): 33%

CC12CCC(O)CC1CCC1C2CCC2(C)C(C(=O)COc3ccc[n+]([O-])c3)CCC12 (stereo not drawn) [3α-Hydroxy-21-(3′-pyridyl)oxy-5β-pregnan-20-one N-oxide]
IC50: 0.292 µM | IMAX (maximum inhibition): 62%

C#C[C@@]1(O)CC[C@@]2(C)[C@H](CC[C@@H]3[C@@H]2CC[C@]2(C)[C@@H](C(=O)CS(=O)(=O)CCCO)CC[C@@H]32)C1 [3β-Ethynyl-3α-hydroxy-21-hydroxypropylsulfonyl-5β-pregnan-20-one]
IC50: 0.194 µM | IMAX (maximum inhibition): 107%
